Data on 28 compounds can be found in patent US5134150A, “Inhibition of the 5-lipoxygenase pathway” (priority 1989, dated 1992).

Assay [1] concerns 5-lipoxygenase and LTA4 synthetase. As to the kind of experiment: Di-HETE / LTB4 production by high speed supernatant of RBL-1 cells. To be noted: RBL-1 high speed supernatant; Table 9A; read-out: 5-LO IC50 (LTB4 production). The class given is biochemical. As for the experimental part: For in vitro experiments, compounds were dissolved at appropriate concentrations in ethanol or DMSO (dimethylsulfoxide) (final concentration≤1.0%) and then diluted to final concentrations using the buffers indicated in the text.
The activities of these enzymes in extracts of RBL-1 cells were assayed using the method of Jakschik and Lee, Nature, 287, 51-52 (1980). RBL-1 cells were obtained from the American Type Culture Collection (#CRL 1378) and were grown at 37° C. (5% CO2 in air) in spinner culture in MEM supplemented with 10% heat inactivated fetal calf serum. Harvested cells were washed with 50 mM sodium phosphate buffer, pH 7.0, containing 1 mM EDTA and 0.1% gelatin, resuspended in fresh buffer (5×10^7 cells/ml) and disrupted by nitrogen cavitation using the Parr bomb at 750 psi for 10 min. The broken cell extract was then centrifuged at 10,000× g for 20 minutes (min) and the supernatant centrifuged at 100,000 xIg for 60 min. Aliquots (0.25 mls) of the supernatant were preincubated with or without drugs for 10 min, after which 10 μl CaCl2 (50 mM) was added and the reaction was initiated with 2.5 μl of 2.5 mM arachidonic acid-1-^14 C (final concentration was 25 μM; specific activity 20,000 dpm/nmole). After incubation for 3 min at 37° C., the reaction was terminated by addition of 2 volumes (0.5 ml) ice cold acetone and the sample was allowed to deproteinize on ice for 10 min prior to centrifugation at 1,000× g for 10 min. The deproteinized supernatant was adjusted to pH 3.5 with 2N formic acid and extracted with 2 volumes of ice cold ethyl acetate. The extracted samples were dried under argon, redissolved in ethyl acetate and applied to Whatman LK5D thin layer chromatography (TLC) plates which were developed using the A-9 solvent system [organic phase of ethyl acetate: 2,2,5-trimethylpentane:acetic acid: water (110:50:20:10)] described by Hamberg and Samuelsson, J. Biol. Chem., 241, 257-263 (1966). Arachidonic acid, 5-HETE, LTB4 and PGD2 were quantified with a Berthold LB 2832 autoscanner.
The 5-lipoxygenase and LTA4 synthetase activities were further studied under the following conditions. An additional centrifugation of the RBL-1 supernatant was run at 100,000× g for 60 min, to remove the particulate cyclooxygenase activity. Sample incubation was done under conditions similar to those described above, i.e., 2 mM CaCl2 and […] arachidonic acid-1-^14 C, however, with an incubation time of 5 min at 5° C. Under these conditions, only the 5-lipoxygenase pathway metabolites were detectable. The 5-HETE and di-HETEs were formed at a linear rate, and substantial amounts of the arachidonic acid-1-^14 C substrate were utilized.

The test system of assay [2] is Arachidonic Acid-Induced Inflammation of the Mouse Ear. The assay can be described thus: Arachidonic acid-induced mouse ear inflammation. In kind it is in vivo, mouse (male Balb/c). As to conditions: for inhibition in vivo at 50 mg/kg: Mus musculus, 1 h, Table 7A, read-out: % Inhibition of Ear Swelling. An excerpt:
(§1) In the following Examples where mice were used, they were male Balb/c mice (20-28 g), and where rats were used, they were male Lewis rats (180-210 g). All mice and rats were obtained from Charles River Breeding Laboratories, Kingston, N.Y. Within a single experiment, mice and rats were sex and age matched.
(§2) The compounds of Formula (I) were used either as the free base or in the appropriate salt form. Levamisole was used as the hydrochloride salt. The compounds were homogenized in 0.5% tragacanth. Compounds were administered by gavage at the indicated dose in a final volume of 10 ml/kg. Nordihydroguaiaretic acid (NDGA) was solubilized in dimethylacetamide and diluted with olive oil for subcutaneous administration.
Arachidonic acid in acetone ([…]) was applied to the inner surface of the left ear. The thickness of both ears was then measured with a dial micrometer one hour after treatment, and the data were expressed as the change in thickness (10^-3 cm) between treated and untreated ears.
Test compounds were given orally in 0.5% tragacanth at the times indicated in the text prior to the topical application of arachidonic acid.
Parenteral administration of compound was accomplished by subcutaneous injection of solution as indicated.

Assay [3] deals with Infiltration of Polymorphonuclear Leukocytes into Sites of Carrageenan-Induced Inflammation. The assay can be described thus: Mouse carrageenan peritonitis (PMN infiltration). In kind it is in vivo, mouse (male Balb/c). To be noted: carrageenan peritonitis, mice.
Text: as §1, §2
Mice were pretreated with either the test compound or vehicle one hour before the intraperitoneal injection of a 1.0% carrageenan suspension in saline (0.2 ml/mouse). Mice were sacrificed by cervical dislocation two hours after injection, and 3.0 ml of phosphate buffered saline, without Ca^++ or Mg^++, was injected into the peritoneum. Following massage, a 2.0 ml aliquot of the lavage fluid was removed, and the total cell count determined on a Coulter counter and differential cell count determined by microscopic examination of Giesma-stained slides.

Assay [4] relates to LTB4 synthesis by peritoneal exudate cells. As to the kind of experiment: Ex vivo production of LTB4 from peritoneal exudate cells of drug-treated mice. In kind it is in vivo, mouse. As to conditions: for inhibition at 50 mg/kg: Mus musculus, po, 50 mg/kg p.o. The source says:
In the following Examples where mice were used, they were male Balb/c mice (20-28 g), and where rats were used, they were male Lewis rats (180-210 g). All mice and rats were obtained from Charles River Breeding Laboratories, Kingston, N.Y. Within a single experiment, mice and rats were sex and age matched. Auranofin, phenidone, indomethacin, naproxen, and ibuprofen were each used as the free base. The compounds of Formula (I) were used either as the free base or in the appropriate salt form. Levamisole was used as the hydrochloride salt. […] Nordihydroguaiaretic acid (NDGA) was solubilized in dimethylacetamide and diluted with olive oil for subcutaneous administration. Carrageenan-induced peritoneal exudate cells from normal or drug-treated mice were washed and suspended in 2.2 ml of phosphate buffered saline. […] The cell preparation was centrifuged at 1500 rpm for 10 min and the supernatant was extracted using a C-18 silica column. […] A tetrahydrofuran, methanol, water, acetic acid (25:30:45: 0.1) solvent system, adjusted to pH 5.5 with ammonium hydroxide, was used at a flow rate of 0.7 ml/min. Cell derived LTB4 was quantified utilizing standard curves constructed with known amounts of synthetic LTB4.

Where two headings read alike, the source gives them in different places.

As usually defined, the IC50 is the concentration at which inhibition is half-maximal. `COc1ccc(-c2nc3n(c2-c2ccc(OC)cc2)CCS3)cc1` [Compound 21]: the IC50 in assay [1] came out at 2.8 µM.
On the same count and under the same terms, then `FC(F)(F)c1ccc(-c2nc3n(c2-c2ccc(C(F)(F)F)cc2)CCS3)cc1` [Compound 15], with 10 µM.
As to `CSc1ccc(-c2nc3n(c2-c2ccc(SC)cc2)CCS3)cc1` [Compound 32], the IC50 in assay [1] was above 100 µM.
For the compound `COc1ccc(-c2nc3n(c2-c2ccc(OC)cc2)CCC3)cc1` [Compound 22], the inhibition in vivo at 50 mg/kg in assay [2] (50 mg/kg s.c. or i.p.) is 15%.
For the compound `CCCNc1ccc(-c2nc3n(c2-c2ccncc2)CCS3)cc1` [Compound 2, 6-(4-(1-propylamino)phenyl)-5-(4-pyridyl)-2,3-dihydroimidazo[2,1-b]thiazole], the inhibition in vivo at 50 mg/kg in assay [2] (50 mg/kg s.c. or i.p.) is 23%. The IC50 in assay [1] turned out to be 7 µM.
Take `CC(Cc1ccc(O)c(O)c1)C(C)Cc1ccc(O)c(O)c1` (stereo not drawn) [NDGA, Nordihydroguaiaretic acid]: in assay [3], the “PMN infiltration, result in words” value is on record as “effective”.
For `N#Cc1ccc(-c2nc3n(c2-c2ccc(C#N)cc2)CCS3)cc1` [Compound 13, 5,6-bis(4-cyanophenyl)-2,3-dihydroimidazo[2,1-b]thiazole], the inhibition in vivo at 50 mg/kg in assay [2] (50 mg/kg s.c. or i.p.) came to 50%. The IC50 in assay [1] stood at 15 µM.
`c1cc(-c2c(-c3ccc4c(c3)OCO4)nc3n2CCS3)ccn1` [Compound 5]: the IC50 in assay [1] turned out to be 10 µM.
Turning to `CCN(CC)c1ccc(-c2nc3n(c2-c2ccc(N(CC)CC)cc2)CCS3)cc1` [Compound 9, 5,6-bis(4-N,N-diethylaminophenyl)-2,3-dihydroimidazo [2,1-b]thiazole], the inhibition in vivo at 50 mg/kg in assay [2] (po, 50 mg/kg p.o.) was 17%. Also, in assay [1], the IC50 amounted to 0.16 µM.
`CC(C)Cc1ccc(C(C)C(=O)O)cc1` (stereo not drawn) [Ibuprofen, reference compound]: in assay [2] (mouse, in vivo), the “Mouse ear edema, result in words” value is on record as “did not exhibit detectable anti-inflammatory activity”.
`c1cc(N2CCCCC2)ccc1-c1nc2n(c1-c1ccc(N3CCCCC3)cc1)CCS2` [Compound 4, 5,6-bis(4-(1-piperidinyl)phenyl)-2,3-dihydroimidazo[2,1-b] thiazole]: the inhibition in vivo at 50 mg/kg in assay [2] (50 mg/kg s.c. or i.p.) is 22%. Further, the IC50 in assay [1] was found to be 0.6 µM.
In the case of `CC(=O)Nc1ccc(-c2nc3n(c2-c2ccncc2)CCS3)cc1` [Compound 38, 5-(4-pyridyl)-6-(4-acetamidophenyl)-2,3-dihydroimidazo (2,1-b)thiazole], the IC50 in assay [1] came to 30 µM.
Consider `Fc1ccc(-c2c(-c3ccccn3)nc3n2CCS3)cc1` [Compound 24, 5-(4-fluorophenyl)-6-(2-pyridinyl)-2,3-dihydroimidazo[2,1-b]thiazole], for which the inhibition in vivo at 50 mg/kg in assay [2] (50 mg/kg s.c. or i.p.) is 69%. The IC50 in assay [1] was determined as 20 µM.
In the same order, the values of `CN(C)c1ccc(-c2c(-c3ccc(F)cc3)nc3n2CCS3)cc1` [Compound 10, 5-(4-Dimethylaminophenyl)-6-(4-fluorophenyl)-2,3-dihydroimidazo[2,1-b]-thiazole] are 7% and 1.5 µM.
With `[O-][S+]1CCn2c1nc(-c1ccc(F)cc1)c2-c1ccc(F)cc1` (stereo not drawn) [Compound 30], the IC50 in assay [1] was 60 µM.
Turning to `Fc1ccc(-c2nc3n(c2-c2ccc(F)cc2)CCC3)cc1` [Compound 8], the inhibition in vivo at 50 mg/kg in assay [2] (po, 50 mg/kg p.o.) was 40%. In addition, the IC50 in assay [1] was found to be 8 µM.
As to `c1cc(N2CCCC2)ccc1-c1nc2n(c1-c1ccc(N3CCCC3)cc1)CCS2` [Compound 3, 5,6-bis(4-(1-pyrrolidinyl)phenyl)-2,3-dihydroimidazo[2,1-b] thiazole], in assay [2] (50 mg/kg s.c. or i.p.), the inhibition in vivo at 50 mg/kg is 44%. The IC50 in assay [1] came to 0.1 µM.
With `COc1ccc(-c2nc3n(c2-c2ccc(F)cc2)CCS3)cc1` [Compound 14], in assay [2] (50 mg/kg s.c. or i.p.), the inhibition in vivo at 50 mg/kg is 64%. The IC50 in assay [1] amounted to 0.6 µM.
Turning to `c1cc2c(cc1-c1nc3n(c1-c1ccc4c(c1)OCO4)CCS3)OCO2` [Compound 16], the inhibition in vivo at 50 mg/kg in assay [2] (po, 50 mg/kg p.o.) came to 32%. For the same compound, in assay [1], the IC50 was 1.5 µM.
Consider `c1cc(-c2nc3n(c2-c2ccncc2)CCS3)ccn1` [Compound 11, 5,6-Bis(4-pyridyl)-2,3-dihydroimidazo(2,1-b) thiazole], for which the inhibition in vivo at 50 mg/kg in assay [2] (50 mg/kg s.c. or i.p.) came out at 29%. The IC50 in assay [1] was determined as 33 µM.
For `c1cc(-c2nc3n(c2-c2ccc4c(c2)OCO4)CCS3)ccn1` [Compound 7, 6-(4-pyridyl)-5-(3,4-methylenedioxyphenyl)-2,3-dihydroimidazo [2,1-b]thiazole], the inhibition in vivo at 50 mg/kg in assay [2] (50 mg/kg s.c. or i.p.) amounted to 62%. Moreover, the IC50 in assay [1] was 10 µM.
Turning to `O=S1(=O)CCn2c1nc(-c1ccc(F)cc1)c2-c1ccc(F)cc1` [Compound 31], in assay [1], the IC50 was below 33 µM.
Take `c1cc(-c2c(-c3ccc(N4CCCC4)cc3)nc3n2CCS3)ccn1` [Compound 25, 5-(4-pyridyl)-6-(4-(pyrrolidin-1-yl)-phenyl)-2,3-dihydroimidazo[2,1-b]thiazole]: the inhibition in vivo at 50 mg/kg in assay [2] (po, 50 mg/kg p.o.) was 17%. In assay [1], the half-maximal inhibitory concentration (IC50) was 0.5 µM.
For the compound `Fc1ccc(-c2nc3n(c2-c2ccccn2)CCS3)cc1` [Compound 23, 5-(2-pyridinyl)-6-(4-fluorophenyl)-2,3-dihydroimidazo[2,1-b]thiazole], the inhibition in vivo at 50 mg/kg in assay [2] (50 mg/kg s.c. or i.p.) was found to be 65%. Also, the IC50 in assay [1] came to 42 µM.
Usually inhibition stands for the drop in the measured response relative to a control, in per cent. Low readings indicate little suppression, high ones strong suppression. Consider `COc1ccc2cc([C@H](C)C(=O)O)ccc2c1` [Naproxen], for which the inhibition at 50 mg/kg in assay [4] (Experiment 1) was found to be 0%; in assay [4] (Experiment 2), 15%; in assay [4] (Experiment 3), 0%. The “LTB4 production ex vivo, result in words” value in assay [4] (mouse, in vivo) was “inactive”.
With `Fc1ccc(-c2nc3n(c2-c2ccc(F)cc2)CCS3)cc1` [Compound 19], the inhibition in vivo at 50 mg/kg in assay [2] (po, 50 mg/kg p.o.) was 34%. In addition, the IC50 in assay [1] came to 5 µM.
On to `CN(C)c1ccc(-c2nc3n(c2-c2ccc(F)cc2)CCS3)cc1` [Compound 6, 6-(4-dimethylaminophenyl)-5-(4-fluorophenyl)-2,3-dihydroimidazo[2,1-b]thiazole], for which the inhibition in vivo at 50 mg/kg in assay [2] (50 mg/kg s.c. or i.p.) turned out to be 48%. In addition, the IC50 in assay [1] is 0.6 µM.
With `COc1ccc(-c2nc3n(c2-c2ccc(OC)cc2)CCCS3)cc1` [Compound 20], in assay [2] (50 mg/kg s.c. or i.p.), the inhibition in vivo at 50 mg/kg was 47%. For the same compound, in assay [1], the IC50 came to 5.6 µM.
